The record followed here is patent US10780090B2, “Heteroaryl compounds useful as inhibitors of SUMO activating enzyme” (Millennium Pharmaceuticals, Inc., priority 2014, dated 2020).

Each structure is given as a SMILES string.

This assay has as its target recombinant human SAE enzyme (Homo sapiens (Human), UniProt Q9UBT2). The assay is described as follows: SAE HTRF enzyme assay. Conditions: for inhibition at 0.111 µM / Percent Inhibition: Concentration 0.111 μM; for inhibition at 0.111 µM: read-out: Percent Inhibition; for IC50: class symbols A/B/C. The format is biochemical. The essentials:
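HTRF read-out using Eu-cryptate anti-Flag and allophycocyanin anti-GST antibodies, added with EDTA stop buffer and read after 2 h at 24 °C. The preceding reaction ran 105 min at 24 °C: 0.11 nM recombinant SAE, 0.5 μM ATP, Sumo-Flag, Ubc9-GST, pH 7.5. Values given as single-concentration inhibition or IC50.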
For orientation: TR-FRET usually uses a lanthanide donor and a delayed reading to cut background.

Chain of recombinant human SAE enzyme (Q9UBT2 whole entry): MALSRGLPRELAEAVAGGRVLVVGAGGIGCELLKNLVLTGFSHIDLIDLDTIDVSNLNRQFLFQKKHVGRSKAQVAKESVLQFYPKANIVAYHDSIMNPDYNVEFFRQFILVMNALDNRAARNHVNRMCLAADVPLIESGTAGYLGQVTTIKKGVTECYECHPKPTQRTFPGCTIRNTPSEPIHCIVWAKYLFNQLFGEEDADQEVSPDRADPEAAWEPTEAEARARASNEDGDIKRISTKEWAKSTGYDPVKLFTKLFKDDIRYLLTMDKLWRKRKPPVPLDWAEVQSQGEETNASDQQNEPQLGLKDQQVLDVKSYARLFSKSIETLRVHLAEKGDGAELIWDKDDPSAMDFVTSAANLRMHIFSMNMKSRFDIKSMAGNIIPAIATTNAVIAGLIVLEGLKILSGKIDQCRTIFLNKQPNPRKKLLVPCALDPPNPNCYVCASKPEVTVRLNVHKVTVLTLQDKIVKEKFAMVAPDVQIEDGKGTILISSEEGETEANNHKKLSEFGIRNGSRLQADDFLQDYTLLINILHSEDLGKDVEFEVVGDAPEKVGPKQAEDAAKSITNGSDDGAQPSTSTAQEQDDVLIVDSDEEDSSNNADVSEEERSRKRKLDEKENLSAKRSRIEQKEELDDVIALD
Chain of recombinant human SAE enzyme (Q9UBE0 whole entry partner): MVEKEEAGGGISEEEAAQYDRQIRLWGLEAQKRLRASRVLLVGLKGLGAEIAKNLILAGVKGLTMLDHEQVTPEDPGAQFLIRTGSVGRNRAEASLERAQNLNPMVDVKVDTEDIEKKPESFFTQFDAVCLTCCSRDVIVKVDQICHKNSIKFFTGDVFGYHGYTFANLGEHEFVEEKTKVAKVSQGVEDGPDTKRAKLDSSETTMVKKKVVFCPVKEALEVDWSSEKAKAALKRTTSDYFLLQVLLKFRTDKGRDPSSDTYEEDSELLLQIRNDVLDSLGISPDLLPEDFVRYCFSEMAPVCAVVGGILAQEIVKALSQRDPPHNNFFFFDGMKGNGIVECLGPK

For orientation: inhibition means the share of the control response that was lost under treatment. By IC50 is commonly meant the concentration at which inhibition is half-maximal. Consider `NS(=O)(=O)OC[C@H]1C[C@@H](Nc2ncncc2C(=O)c2cc(Cn3cnc4ccccc43)cs2)C[C@@H]1O` [I-192, {(1R,2S,4R)-4-[(5-{[4-(1H-benzimidazol-1-ylmethyl)-2-thienyl]carbonyl}pyrimidin-4-yl)amino]-2-hydroxycyclopentyl}methyl sulfamate], for which the inhibition at 0.111 µM is 66% and the IC50 lay within 10 to 100 nM.
Take `NS(=O)(=O)OC[C@H]1C[C@@H](Nc2ncncc2C(=O)c2cc(CC3=CCOC3)cs2)C[C@@H]1O` [I-193, {(1R,2S,4R)-4-[(5-{[4-(2,5-dihydrofuran-3-ylmethyl)-2-thienyl]carbonyl}pyrimidin-4-yl)amino]-2-hydroxycyclopentyl}methyl sulfamate]: the inhibition at 0.111 µM is 72% and the IC50 lay in the range of 10 to 100 nM.
The like results for `Cc1sc(C(=O)c2cncnc2N[C@@H]2C[C@H](COS(N)(=O)=O)[C@@H](O)C2)cc1Cn1ccc(C#N)c1` [I-194, [(1R,2S,4R)-4-{[5-({4-[(3-cyano-1H-pyrrol-1-yl)methyl]-5-methyl-2-thienyl}carbonyl)pyrimidin-4-yl]amino}-2-hydroxycyclopentyl]methyl sulfamate] were, in that order, 66% and 10 to 100 nM.
`NS(=O)(=O)OC[C@H]1C[C@@H](Nc2ncncc2C(=O)c2cc(CC3=CCOCC3)cs2)C[C@@H]1O` [I-196, {(1R,2S,4R)-4-[(5-{[4-(3,6-dihydro-2H-pyran-4-ylmethyl)-2-thienyl]carbonyl}pyrimidin-4-yl)amino]-2-hydroxycyclopentyl}methyl sulfamate]: the inhibition at 0.111 µM came to 63% and the IC50 was in the range of 10 to 100 nM.
Regarding `NS(=O)(=O)OC[C@H]1C[C@@H](Nc2ncncc2C(=O)c2cc(CC3CCCCC3)cs2)C[C@@H]1O` [I-199, {(1R,2S,4R)-4-[(5-{[4-(Cyclohexylmethyl)-2-thienyl]carbonyl}pyrimidin-4-yl)amino]-2-hydroxycyclopentyl}methyl sulfamate], the inhibition at 0.111 µM turned out to be 63% and the IC50 lay within 10 to 100 nM.
As to `NS(=O)(=O)OC[C@H]1C[C@@H](Nc2ncncc2C(=O)c2cc(S(=O)(=O)c3ccccc3)cs2)C[C@@H]1O` [I-200, {(1R,2S,4R)-2-Hydroxy-4-[(5-[4-(phenylsulfonyl)-2-thienyl]carbonyl}pyrimidin-4-yl)amino]cyclopentyl}methyl sulfamate], the “Percent Inhibition” value came to 62 and the IC50 was in the range of 10 to 100 nM.
As to `CC(C)Oc1ccccc1OCc1csc(C(=O)c2cncnc2N[C@@H]2C[C@H](COS(N)(=O)=O)[C@@H](O)C2)c1` [I-201, [(1R,2S,4R)-2-hydroxy-4-{[5-({4-[(2-isopropoxyphenoxy)methyl]-2-thienyl}carbonyl)pyrimidin-4-yl]amino}cyclopentyl]methyl sulfamate], the inhibition at 0.111 µM worked out at 60% and the half-maximal inhibitory concentration (IC50) was in the range of 10 to 100 nM.
The like results for `CC(C)(O)c1ccc(C(=O)c2cncnc2N[C@@H]2C[C@H](COS(N)(=O)=O)[C@@H](O)[C@H]2O)s1` [I-202, {(1R,2R,3S,4R)-2,3-dihydroxy-4-[(5-{[5-(2-hydroxypropan-2-yl)-2-thienyl]carbonyl}pyrimidin-4-yl)amino]cyclopentyl}methyl sulfamate] were, in that order, 60% and 10 to 100 nM.
On the same counts, the results for `NS(=O)(=O)OC[C@H]1C[C@@H](Nc2ncncc2C(=O)c2cc(S(=O)(=O)c3cccc(Cl)c3)c(Cl)s2)C[C@@H]1O` [I-203, [(1R,2S,4R)-4-{[5-({5-chloro-4-[(3-chlorophenyl)sulfonyl]-2-thienyl}carbonyl)pyrimidin-4-yl]amino}-2-hydroxycyclopentyl]methyl sulfamate] are 58% and 10 to 100 nM.
For the compound `NS(=O)(=O)OC[C@H]1C[C@@H](Nc2ncncc2C(=O)c2cc(CN3CC=CCC3)cs2)C[C@@H]1O` [I-204, {(1R,2S,4R)-4-[(5-{[4-(3,6-dihydropyridin-1(2H)-ylmethyl)-2-thienyl]carbonyl}pyrimidin-4-yl)amino]-2-hydroxycyclopentyl}methyl sulfamate], the inhibition at 0.111 µM is 52% and the IC50 lay in the range of 10 to 100 nM.
On the same counts, the results for `NS(=O)(=O)OC[C@H]1C[C@@H](Nc2ncncc2C(=O)c2ccc(Cc3cccc(Cl)c3)s2)[C@@H](F)[C@@H]1O` [I-205, {(1R,2R,3R,4R)-4-[(5-{[5-(3-Chlorobenzyl)-2-thienyl]carbonyl}pyrimidin-4-yl)amino]-3-fluoro-2-hydroxycyclopentyl}methyl sulfamate] are 51% and 100 to 1000 nM.
The like results for `NS(=O)(=O)OC[C@H]1C[C@@H](Nc2ncncc2C(=O)c2ccc(CO)o2)C[C@@H]1O` [I-206, [(1R,2S,4R)-2-hydroxy-4-({5-[5-(hydroxymethyl)-2-furoyl]pyrimidin-4-yl}amino)cyclopentyl]methyl sulfamate] were, in that order, 49% and 100 to 1000 nM.
As to `NS(=O)(=O)OC[C@H]1C[C@@H](Nc2ncncc2C(=O)c2cc(C(=O)c3cccc(Cl)c3)c(Cl)s2)C[C@@H]1O` [I-207, {(1R,2S,4R)-4-[(5-{[5-Chloro-4-(3-chlorobenzoyl)-2-thienyl]carbonyl}pyrimidin-4-yl)amino]-2-hydroxycyclopentyl}methyl sulfamate], the inhibition at 0.111 µM was found to be 51% and the IC50 was 100 to 1000 nM.
The like results for `NS(=O)(=O)OC[C@H]1C[C@@H](Nc2ncncc2C(=O)c2cc(C(=O)c3ccccc3)co2)C[C@@H]1O` [I-208, [(1R,2S,4R)-4-{[5-(4-benzoyl-2-furoyl)pyrimidin-4-yl]amino}-2-hydroxycyclopentyl]methyl sulfamate] were, in that order, 46% and 100 to 1000 nM.
For the compound `NS(=O)(=O)OC[C@H]1C[C@@H](Nc2ncncc2C(=O)c2cc(Cc3cncc(Cl)c3)cs2)C[C@@H]1O` [I-210, [(1R,2S,4R)-4-{[5-({4-[(5-chloropyridin-3-yl)methyl]-2-thienyl}carbonyl)pyrimidin-4-yl]amino}-2-hydroxycyclopentyl]methyl sulfamate], the inhibition at 0.111 µM was 50% and the IC50 lay in the range of 100 to 1000 nM.
On the same counts, the results for `NS(=O)(=O)OC[C@H]1C[C@@H](Nc2ncncc2C(=O)c2cc(CO)c(Cl)s2)C[C@@H]1O` [I-211, {(1R,2S,4R)-4-[(5-{[5-Chloro-4-(hydroxymethyl)-2-thienyl]carbonyl}pyrimidin-4-yl)amino]-2-hydroxycyclopentyl}methyl sulfamate] are 39% and 100 to 1000 nM.
The like results for `COCc1ccc(C(=O)c2cncnc2N[C@@H]2C[C@H](COS(N)(=O)=O)[C@@H](O)C2)o1` [I-212, [(1R,2S,4R)-2-hydroxy-4-({5-[5-(methoxymethyl)-2-furoyl]pyrimidin-4-yl}amino)cyclopentyl]methyl sulfamate] were, in that order, 43% and 100 to 1000 nM.
`NS(=O)(=O)OC[C@H]1C[C@@H](Nc2ncncc2C(=O)c2cc(C(=O)c3ccccc3)c(Cl)s2)C[C@@H]1O` [I-215, [(1R,2S,4R)-4-({5-(4-Benzoyl-5-chlor-2-thienyl)carbonyl]pyrimidin-4-yl}amino)-2-hydroxycyclopentyl]methyl sulfamate]: the “Percent Inhibition” value is listed as 36 and the 50% inhibitory concentration (IC50) is 100 to 1000 nM.
Turning to `NS(=O)(=O)OC[C@H]1C[C@@H](Nc2ncncc2C(=O)c2cc(CO)co2)C[C@@H]1O` [I-216, [(1R,2S,4R)-2-Hydroxy-4-{(5-[4-(hydroxymethyl)-2-furoyl]pyrimidin-4-yl}amino)cyclopentyl]methyl sulfamate], the inhibition at 0.111 µM stood at 36% and the IC50 lay in the range of 100 to 1000 nM.
Take `COCc1csc(C(=O)c2cncnc2N[C@@H]2C[C@H](COS(N)(=O)=O)[C@@H](O)C2)c1` [I-217, {(1R,2S,4R)-2-Hydroxy-4-[(5-{[4-(methoxymethyl)-2-thienyl]carbonyl}pyrimidin-4-yl)amino]cyclopentyl}methyl sulfamate]: the inhibition at 0.111 µM was determined as 36% and the IC50 lay within 100 to 1000 nM.
The like results for `COCc1cc(C(=O)c2cncnc2N[C@@H]2C[C@H](COS(N)(=O)=O)[C@@H](O)C2)sc1Cl` [I-218, {(1R,2S,4R)-4-[(5-{[5-Chloro-4-(methoxymethyl)-2-thienyl]carbonyl}pyrimidin-4-yl)amino]-2-hydroxycyclopentyl}methyl sulfamate] were, in that order, 33% and 100 to 1000 nM.
As to `NS(=O)(=O)OC[C@H]1C[C@@H](Nc2ncncc2C(=O)c2cc(CN3CC=CC3)cs2)C[C@@H]1O` [I-219, {(1R,2S,4R)-4-[(5-{[4-(2,5-dihydro-1H-pyrrol-1-ylmethyl)-2-thienyl]carbonyl}pyrimidin-4-yl)amino]-2-hydroxycyclopentyl}methyl sulfamate], the inhibition at 0.111 µM was 32% and the IC50 was 100 to 1000 nM.
Take `CN(C)Cc1cn(Cc2csc(C(=O)c3cncnc3N[C@@H]3C[C@H](COS(N)(=O)=O)[C@@H](O)C3)c2)c2ccccc12` [I-221, {(1R,2S,4R)-4-[(5-{[4-({3-[(dimethylamino)methyl]-1H-indol-1-yl}methyl)-2-thienyl]carbonyl}pyrimidin-4-yl)amino]-2-hydroxycyclopentyl}methyl sulfamate]: the inhibition at 0.111 µM turned out to be 30% and the IC50 lay in the range of 100 to 1000 nM.
For `NS(=O)(=O)OC[C@H]1C[C@@H](Nc2ncncc2C(=O)c2cc(CNCc3ccccc3)cs2)C[C@@H]1O` [I-222, [(1R,2S,4R)-4-{[5-({4-(Benzylamino)methyl]-2-thienyl)carbonyl)pyrimidin-4-yl]amino}-2-hydroxycyclopentyl]methyl sulfamate], the “Percent Inhibition” value is 31 and the IC50 is 100 to 1000 nM.
As for `COCc1coc(C(=O)c2cncnc2N[C@@H]2C[C@H](COS(N)(=O)=O)[C@@H](O)C2)c1` [I-223, [(1R,2S,4R)-2-Hydroxy-4-({5-[4-(methoxymethyl)-2-furoyl]pyrimidin-4-yl}amino)cyclopentyl]methyl sulfamate], the inhibition at 0.111 µM stood at 28% and the IC50 fell in the range of 100 to 1000 nM.
